Assay results from patent US4272437A, “Antibacterial agents, and 4-thio azetidinone intermediates” (priority 1979, dated 1981).
Values after ≈ are worked out from the molar mass of the structure shown. Values joined by “and” are separate entries in the source; they are usually repeats but may differ in a detail not shown here. Equal values may be shown once. Read-outs that look alike come from different tables or passages of the source.

Tests used:
Pr. morganii A-15153 = experiment: MIC, tube dilution, Proteus morganii A15153; assay type: cell-based; details: overnight 37° C.
Source text: (§1) Representative compounds of the present invention were subjected to in vitro antibiotic screening against a variety of microorganisms.

[1] = stability in aqueous solution followed by UV; assay type: physicochemical; parameters: unit not given here; details: UV, aqueous solution
Experimental: To a solution of penem 3 (2.4 g, 6.89 mmoles) in tetrahydrofuran-ether-water mixture (1:1:1, 165 ml) was added 30% palladium on diatomaceous earth (4.8 g). The reaction mixture was hydrogenated under 45 p.s.i. at 23° C. for 2.5 h and filtered over celite pad. The filtrate and washings were combined, washed twice with ether, centrifugated and filtered several times to give a clear solution which was lyophilized; 0.622 g, 45%. The crystallization of the compound was induced by the addition of water (0.8 ml); the suspension was centrifuged and the water was removed leaving an orange solid. This solid was washed twice with water and a slightly yellow solid was obtained after drying: […], 19.8%. UV λmax^H.sbsp.2^O : 307 (ε=4318) and 257 (ε=2650). Some crude starting material (1.2 g, 50%) was recovered. The compound (50 mg) can also be purified by column chromatography [Sephadex G10, column size: 1.6×100 cm, flow rate: 10 ml/h, eluent: distilled water, fraction volume: 1.5 ml, detector: refractive index]. UV λmax^H.sbsp.2^O 307 (ε=3597) and 255 (ε=2424).
The stability of the compound in aqueous solution was checked by:
A sample of compound 4 was kept at 23° C. for 3 days and the UV was taken: UV λmax^H.sbsp.2^O : 307 (ε=3055) and 255 (ε=2008).
To a solution of ester 6 (200 mg, 0.5 mmole) in tetrahydrofuran (10 ml) was added ether (10 ml), water (10 ml) and 30% palladium on diatomaceous earth (200 mg). The reaction mixture was hydrogenated in a Parr apparatus under 35 p.s.i. at 25° C. for 2 h 30 min and filtered over a celite pad. The filtrate was washed twice with ether and the aqueous solution was lyophilized, giving a yellow powder which was purified by column chromatography [Sephadex G-10, bed dimensions: 100×1.6 cm, flow rate: 12 ml/h, eluent: distilled water, fraction volume: 1.5 ml detector: refractive index]. The right fractions were combined and lyophilized to give a white powder (10 mg, 8.8%). UV λmax^H.sbsp.2 O 301 (ε=4930), 258 (ε=3290). IR (KBr) cm^-1 :1770 (c=o of β-lactam) and 1580 [drawing 587] The stability of compound 7 in aqueous solution was followed by UV; after 6 h: 301 (4795) and 258 (3105) and after 72 h: 301 (4565) and 258 (3150). […]

Str. pyogenes A-9604 = experiment: MIC, tube dilution, Streptococcus pyogenes A9604; assay type: cell-based; details: overnight 37° C., Nutrient Broth
Source text: as §1

Ent. cloacae A-9659 = experiment: MIC, tube dilution, Enterobacter cloacae A9659; assay type: cell-based; details: overnight 37° C.
Source text: as §1

Proteus vulgaris A9555 = experiment: MIC, tube dilution, Proteus vulgaris (mirabilis) A9555; assay type: cell-based; details: overnight 37° C., read-out: Minimum Inhibitory Concentration (M.I.C.)
Source text: as §1

Ent. cloacae A-9656 = experiment: MIC, tube dilution, Enterobacter cloacae A9656; assay type: cell-based; details: overnight 37° C.
Source text: as §1

[2] = tested on: Staph. aureus (Meth-Res) A-15097; experiment: MIC, tube dilution, Staphylococcus aureus A15097 (Meth-Res); assay type: cell-based; details: Staph. aureus A15097 (Meth-Res), overnight 37° C.; for MIC: Staphylococcus aureus, read-out: Minimum Inhibitory Concentration (M.I.C.)
Source text: as §1

Str. faecalis A-20688 = experiment: MIC, tube dilution, Streptococcus faecalis A20688; assay type: cell-based; details: overnight 37° C.; for MIC: Enterococcus faecalis, A20688, Str. faecalis A20688, read-out: Minimum Inhibitory Concentration (M.I.C.)
Source text: as §1

E. coli A-20341-1 = experiment: MIC, tube dilution, Escherichia coli A20341-1; assay type: cell-based; details: overnight 37° C.; for MIC: Escherichia coli, A203411, E. coli A20341-1, read-out: Minimum Inhibitory Concentration (M.I.C.)
Source text: as §1

Ser. marcescens A-20019 = experiment: MIC, tube dilution, Serratia marcescens A20019; assay type: cell-based; details: overnight 37° C.
Source text: as §1

[3] = tested on: Staph. aureus (Pen-Res) A-9606; experiment: MIC, tube dilution, Staphylococcus aureus A9606 (Pen-Res); assay type: cell-based; details: Staph. aureus A9606 (Pen-Res), overnight 37° C.
Source text: as §1

[4] = tested on: Klebsiella species A20468; experiment: MIC, tube dilution, Klebsiella species A20468; assay type: cell-based; details: Klebsiella species (K. pneumoniae) A20468, overnight 37° C.; for MIC: read-out: Minimum Inhibitory Concentration (M.I.C.)
Source text: as §1

Pr. mirabilis A-9900 = experiment: MIC, tube dilution, Proteus mirabilis A9900; assay type: cell-based; details: overnight 37° C.
Source text: as §1

K. pneumoniae A-15130 = experiment: MIC, tube dilution, Klebsiella pneumoniae A15130; assay type: cell-based; details: overnight 37° C.
Source text: as §1

Staph. aureus A-9537 = experiment: MIC, tube dilution, Staphylococcus aureus A9537; assay type: cell-based; details: overnight 37° C., Nutrient Broth
Source text: as §1

Ps. aeruginosa A-21213 = experiment: MIC, tube dilution, Pseudomonas aeruginosa A21213; assay type: cell-based; details: overnight 37° C.; for MIC: Pseudomonas aeruginosa, A21213, Pseudomonas aeruginosa A21213, read-out: Minimum Inhibitory Concentration (M.I.C.)
Source text: as §1

[5] = tested on: Staph. aureus A-9537 and 50% serum; experiment: MIC, tube dilution, Staph. aureus A9537 + 50% serum; assay type: cell-based, Staphylococcus aureus; details: overnight 37° C.
Source text: as §1

Str. pneumoniae A-9585 = experiment: MIC, tube dilution, Streptococcus pneumoniae A9585; assay type: cell-based; details: overnight 37° C., Nutrient Broth
Source text: as §1

Ps. aeruginosa A-9843A = experiment: MIC, tube dilution, Pseudomonas aeruginosa A9843A; assay type: cell-based; details: overnight 37° C.
Source text: as §1

E. coli A-15119 = experiment: MIC, tube dilution, Escherichia coli A15119; assay type: cell-based; details: overnight 37° C.
Source text: as §1

Proteus rettgeri A21203 = experiment: MIC, tube dilution, Proteus rettgeri A21203; assay type: cell-based; details: overnight 37° C.
Source text: as §1

Pr. vulgaris A-9716 = experiment: MIC, tube dilution, Proteus vulgaris / Proteus mirabilis A9716; assay type: cell-based, Proteus vulgaris (name changed to Proteus mirabilis); details: Proteus vulgaris / Proteus mirabilis A9716; overnight 37° C.
Source text: as §1

E. coli A15119 = experiment: In vivo protection of mice, lethal infection with E. coli A15119; details: Escherichia coli, 2 treatments, 6.5 × 10^5 organisms, read-out: PD50
Experimental: (§2) Representative compounds of the present invention were also tested in vivo in mice and their PD50 (dose of compound in mg/kg required to protect 50% of the treated mice against an otherwise lethal infection of a micro-organism) values determined with respect to the test organisms shown below.

S. aureus A9537 = experiment: In vivo protection of mice, lethal infection with S. aureus A9537; details: Staphylococcus aureus, A9537, im, IM, 2 treatments, 7.3 × 10^5 organisms; read-out: PD50
Experimental: as §2

Proteus vulgaris A21559 = experiment: MIC, tube dilution, Proteus vulgaris A21559; assay type: cell-based; details: Proteus vulgaris, A21559, Proteus vulgaris A21559; overnight 37° C.; read-out: Minimum Inhibitory Concentration (M.I.C.)
Source text: as §1

[6] = Staphylococcus aureus, read-out: Minimum Inhibitory Concentration (M.I.C.)

NCCCC1=C(C(=O)O)N2C(=O)CC2S1 (centres unmarked) [Example 51, 2-(γ-Aminopropyl)penem-3-carboxylic Acid]
Minimum Inhibitory Concentration (M.I.C.) (Pr. morganii A-15153; Proteus morganii A15153): 32 µg/mL and 16 µg/mL
ε at 258 in aqueous solution (stability) ([1]; after 6 h): 3105
ε at 301 in aqueous solution (stability) ([1]; after 6 h): 4795
ε at 258 in aqueous solution (stability) ([1]; after 72 h): 3150
ε at 301 in aqueous solution (stability) ([1]; after 72 h): 4565
Minimum Inhibitory Concentration (M.I.C.) (Str. pyogenes A-9604; Str. pyogenes A9604): 2 µg/mL and 1 µg/mL
Minimum Inhibitory Concentration (M.I.C.) (Ent. cloacae A-9659; Enterobacter cloacae A9659): 16 µg/mL
MIC (Proteus vulgaris A9555): 63 µg/mL (≈ 276 µM)
Minimum Inhibitory Concentration (M.I.C.) (Ent. cloacae A-9656; Enterobacter cloacae A9656): 32 µg/mL
Minimum Inhibitory Concentration (M.I.C.) [2]: 125 µg/mL
MIC [2]: 63 µg/mL (≈ 276 µM)
MIC (Str. faecalis A-20688): 63 µg/mL (≈ 276 µM)
Minimum Inhibitory Concentration (M.I.C.) (Str. faecalis A-20688; Str. faecalis A20688): 125 µg/mL
Minimum Inhibitory Concentration (M.I.C.) (E. coli A-20341-1; E. coli A20341-1): 125 µg/mL
MIC (E. coli A-20341-1): > 63 µg/mL
Minimum Inhibitory Concentration (M.I.C.) (Ser. marcescens A-20019; Serratia marcescens A20019): 32 µg/mL and 16 µg/mL
Minimum Inhibitory Concentration (M.I.C.) [3]: 63 µg/mL and 32 µg/mL
Minimum Inhibitory Concentration (M.I.C.) [4]: > 125 µg/mL
MIC [4]: > 63 µg/mL
Minimum Inhibitory Concentration (M.I.C.) (Pr. mirabilis A-9900; Proteus mirabilis A9900): 16 µg/mL and 8 µg/mL
Minimum Inhibitory Concentration (M.I.C.) (K. pneumoniae A-15130; K. pneumoniae A15130): 32 µg/mL
Minimum Inhibitory Concentration (M.I.C.) (Staph. aureus A-9537; Staph. aureus A9537): 2 µg/mL and 1 µg/mL
Minimum Inhibitory Concentration (M.I.C.) (Ps. aeruginosa A-21213; Pseudomonas aeruginosa A21213): 125 µg/mL
MIC (Ps. aeruginosa A-21213): 63 µg/mL (≈ 276 µM)
Minimum Inhibitory Concentration (M.I.C.) [5]: 63 µg/mL and > 32 µg/mL
Minimum Inhibitory Concentration (M.I.C.) (Str. pneumoniae A-9585; Str. pneumoniae A9585): .25 µg/mL
Minimum Inhibitory Concentration (M.I.C.) (Ps. aeruginosa A-9843A; Pseudomonas aeruginosa A9843A): 125 µg/mL and 63 µg/mL
Minimum Inhibitory Concentration (M.I.C.) (E. coli A-15119; E. coli A15119): 16 µg/mL and 8 µg/mL
Minimum Inhibitory Concentration (M.I.C.) (Proteus rettgeri A21203; Proteus rettgeri A21203): 16 µg/mL and 8 µg/mL
Minimum Inhibitory Concentration (M.I.C.) (Pr. vulgaris A-9716): 16 µg/mL

N[C@H]1C[C@H](C2=C(C(=O)O)N3C(=O)C[C@H]3S2)C1 [Example 75, 2-(trans 3-Aminocyclobutyl)-penem-3-carboxylic Acid]
MIC (Pr. morganii A-15153; Morganella morganii, A15153, Proteus morganii A15153, read-out: Minimum Inhibitory Concentration (M.I.C.)): 4 µg/mL (≈ 16.6 µM)
MIC (Str. pyogenes A-9604; Streptococcus pyogenes, A9604, Str. pyogenes A9604, read-out: Minimum Inhibitory Concentration (M.I.C.)): 0.016 µg/mL (≈ 0.0666 µM)
MIC (Ent. cloacae A-9659; Enterobacter cloacae, A9659, Enterobacter cloacae A9659, read-out: Minimum Inhibitory Concentration (M.I.C.)): 4 µg/mL (≈ 16.6 µM)
ED50 (E. coli A15119; IM): 25 mg/kg
ED50 (E. coli A15119; PO): > 50 mg/kg
MIC (Ent. cloacae A-9656; Enterobacter cloacae, A9656, Enterobacter cloacae A9656, read-out: Minimum Inhibitory Concentration (M.I.C.)): 4 µg/mL (≈ 16.6 µM)
MIC [2]: 4 µg/mL (≈ 16.6 µM)
MIC (Str. faecalis A-20688): 4 µg/mL (≈ 16.6 µM)
MIC (E. coli A-20341-1): 8 µg/mL (≈ 33.3 µM)
ED50 (S. aureus A9537): 0.4 mg/kg
MIC (Ser. marcescens A-20019; Serratia marcescens, A20019, Serratia marcescens A20019, read-out: Minimum Inhibitory Concentration (M.I.C.)): 2 µg/mL (≈ 8.32 µM)
MIC [3, 6]: 63 µg/mL (≈ 262 µM)
MIC [4]: > 125 µg/mL
MIC (Pr. mirabilis A-9900; Proteus mirabilis, A9900, Proteus mirabilis A9900, read-out: Minimum Inhibitory Concentration (M.I.C.)): 1 µg/mL (≈ 4.16 µM)
MIC (K. pneumoniae A-15130; Klebsiella pneumoniae, A15130, K. pneumoniae A15130, read-out: Minimum Inhibitory Concentration (M.I.C.)): 4 µg/mL (≈ 16.6 µM)
MIC (Staph. aureus A-9537; Staphylococcus aureus, A9537, Staph. aureus A9537, read-out: Minimum Inhibitory Concentration (M.I.C.)): 0.06 µg/mL (≈ 0.25 µM)
MIC (Ps. aeruginosa A-21213): 125 µg/mL (≈ 520 µM)
MIC [5, 6]: 0.5 µg/mL
MIC (Str. pneumoniae A-9585; Streptococcus pneumoniae, A9585, Str. pneumoniae A9585, read-out: Minimum Inhibitory Concentration (M.I.C.)): 0.002 µg/mL (≈ 0.00832 µM)
MIC (Proteus vulgaris A21559): 2 µg/mL (≈ 8.32 µM)
MIC (Ps. aeruginosa A-9843A; Pseudomonas aeruginosa, A9843A, read-out: Minimum Inhibitory Concentration (M.I.C.), Pseudomonas aeruginosa A9843A): 63 µg/mL (≈ 262 µM)
MIC (E. coli A-15119; Escherichia coli, A15119, E. coli A15119, read-out: Minimum Inhibitory Concentration (M.I.C.)): 1 µg/mL (≈ 4.16 µM)
MIC (Proteus rettgeri A21203; Providencia rettgeri, A21203, Proteus rettgeri A21203, read-out: Minimum Inhibitory Concentration (M.I.C.)): 1 µg/mL (≈ 4.16 µM)
